In ChEMBL document CHEMBL3217613, “Novel thalidomide analogues with potent NFB and TNF expression inhibition” (Medchemcomm, 2011) one finds inhibition, Activity and Ratio data, which are given here for 29 molecules.

Common to all, as to format: cell-based
Data set [1] has as its target T1, Nuclear factor NF-kappa-B complex (Homo sapiens) (UniProt Q00653+P19838+Q04206). Description: Inhibition of NFkappaB in human FRT-Jurkat cells expressing GFP assessed as reduction of TNF expression at 10 uM after 24 hrs by flow cytometry relative to control. For orientation: A flow cytometer gives signals particle by particle.
For the next data set, the system named is Jurkat. Description: Cytotoxicity against human FRT-Jurkat cells assessed as reduction of cell viability by measuring cleaved caspase 3 at 10 uM by flow cytometer.
Data set [2] concerns the target T1, Nuclear factor NF-kappa-B complex (Homo sapiens). Briefly: Inhibition of NFkappaB in human FRT-Jurkat cells expressing GFP assessed as reduction of TNF expression at 100 uM after 24 hrs by flow cytometry relative to control.
For data set [3] the target is unchanged. Briefly: Ratio of thalidomide to compound for inhibition of NFkappaB in human FRT-Jurkat cells expressing GFP assessed as reduction of TNF expression at 10 uM.

T1 sequence (P19838 whole entry, looked up): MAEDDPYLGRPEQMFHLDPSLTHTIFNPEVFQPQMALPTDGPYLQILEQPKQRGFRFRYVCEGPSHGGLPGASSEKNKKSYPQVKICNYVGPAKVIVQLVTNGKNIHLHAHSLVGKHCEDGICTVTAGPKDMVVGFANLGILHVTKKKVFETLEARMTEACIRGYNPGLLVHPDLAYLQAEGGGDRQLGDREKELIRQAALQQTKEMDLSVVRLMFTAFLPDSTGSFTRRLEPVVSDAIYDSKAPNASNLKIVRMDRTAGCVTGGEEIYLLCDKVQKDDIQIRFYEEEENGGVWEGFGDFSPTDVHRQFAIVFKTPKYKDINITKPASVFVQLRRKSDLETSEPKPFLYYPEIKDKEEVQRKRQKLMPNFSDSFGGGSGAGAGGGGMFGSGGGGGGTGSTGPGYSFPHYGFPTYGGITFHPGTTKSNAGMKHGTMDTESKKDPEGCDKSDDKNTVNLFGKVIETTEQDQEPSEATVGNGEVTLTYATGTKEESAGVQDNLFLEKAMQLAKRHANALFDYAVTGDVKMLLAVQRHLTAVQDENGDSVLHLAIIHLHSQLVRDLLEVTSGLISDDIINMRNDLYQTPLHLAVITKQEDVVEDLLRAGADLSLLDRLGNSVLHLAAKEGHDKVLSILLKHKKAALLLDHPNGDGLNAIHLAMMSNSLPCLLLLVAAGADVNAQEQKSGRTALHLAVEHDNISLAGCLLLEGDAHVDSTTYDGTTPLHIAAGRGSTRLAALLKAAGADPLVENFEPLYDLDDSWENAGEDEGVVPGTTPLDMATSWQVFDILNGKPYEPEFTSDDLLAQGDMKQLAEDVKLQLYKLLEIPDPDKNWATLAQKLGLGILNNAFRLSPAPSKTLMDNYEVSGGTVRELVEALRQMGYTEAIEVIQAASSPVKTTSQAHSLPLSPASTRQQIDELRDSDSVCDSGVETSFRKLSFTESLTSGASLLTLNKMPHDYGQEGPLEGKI
T1 sequence (Q00653 whole entry, looked up): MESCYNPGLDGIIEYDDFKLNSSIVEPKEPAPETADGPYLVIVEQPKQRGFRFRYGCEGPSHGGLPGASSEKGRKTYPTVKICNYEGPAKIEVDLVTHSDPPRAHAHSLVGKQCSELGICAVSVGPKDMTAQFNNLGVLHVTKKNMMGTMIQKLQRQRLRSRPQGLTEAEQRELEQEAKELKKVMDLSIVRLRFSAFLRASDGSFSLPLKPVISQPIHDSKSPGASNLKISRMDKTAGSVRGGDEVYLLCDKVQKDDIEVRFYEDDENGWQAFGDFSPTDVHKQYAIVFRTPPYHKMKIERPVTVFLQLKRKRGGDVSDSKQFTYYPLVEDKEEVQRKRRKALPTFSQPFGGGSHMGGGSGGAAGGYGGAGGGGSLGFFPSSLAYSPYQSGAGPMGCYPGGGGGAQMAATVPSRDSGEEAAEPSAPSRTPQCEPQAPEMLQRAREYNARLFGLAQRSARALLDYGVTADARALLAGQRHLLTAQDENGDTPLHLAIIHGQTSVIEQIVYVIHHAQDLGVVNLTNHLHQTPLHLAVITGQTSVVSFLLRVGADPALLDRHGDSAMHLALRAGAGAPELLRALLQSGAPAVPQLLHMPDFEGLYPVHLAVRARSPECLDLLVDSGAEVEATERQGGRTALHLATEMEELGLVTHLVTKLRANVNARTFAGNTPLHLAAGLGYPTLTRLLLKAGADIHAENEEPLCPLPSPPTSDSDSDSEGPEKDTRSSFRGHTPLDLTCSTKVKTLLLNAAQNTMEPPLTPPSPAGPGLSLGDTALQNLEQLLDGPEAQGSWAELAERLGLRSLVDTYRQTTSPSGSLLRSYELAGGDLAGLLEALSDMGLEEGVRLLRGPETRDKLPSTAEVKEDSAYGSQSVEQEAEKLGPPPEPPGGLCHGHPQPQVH
T1 sequence (Q04206 whole entry, looked up): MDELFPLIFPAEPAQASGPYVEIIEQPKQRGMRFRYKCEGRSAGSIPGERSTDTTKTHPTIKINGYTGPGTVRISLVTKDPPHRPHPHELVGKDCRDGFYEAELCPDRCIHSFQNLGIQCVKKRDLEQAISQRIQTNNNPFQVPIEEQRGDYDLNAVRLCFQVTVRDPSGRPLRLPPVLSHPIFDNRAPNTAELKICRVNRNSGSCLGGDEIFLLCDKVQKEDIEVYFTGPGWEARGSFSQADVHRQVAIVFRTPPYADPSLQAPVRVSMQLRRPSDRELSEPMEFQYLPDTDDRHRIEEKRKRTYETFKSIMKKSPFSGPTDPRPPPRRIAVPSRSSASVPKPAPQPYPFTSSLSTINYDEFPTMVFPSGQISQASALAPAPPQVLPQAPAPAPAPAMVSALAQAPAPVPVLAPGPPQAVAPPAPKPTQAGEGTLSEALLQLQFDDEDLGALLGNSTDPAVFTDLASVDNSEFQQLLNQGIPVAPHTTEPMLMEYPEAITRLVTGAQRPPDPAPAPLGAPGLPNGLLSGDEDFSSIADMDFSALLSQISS

As usually defined, the inhibition is the change of the read-out against control, counted positive when it falls. With `O=C1CCC(N2C(=O)c3ccc(Nc4ccc(O)cc4)cc3C2=O)C(=O)N1` (configuration not stated), the inhibition in data set [1] was found to be 4%.
For the molecule `Cc1ccc(Nc2cccc3c2C(=O)N(C2CCC(=O)NC2=O)C3=O)cc1` (configuration not stated), the inhibition in data set [1] was 9%. In the data set with Jurkat, the Activity stood at 89%.
For `O=C1CCC(N2C(=O)c3cccc(Nc4ccccn4)c3C2=O)C(=O)N1` (configuration not stated) the same measures were 1% and 89%.
Take `CC(C)(C)c1ccc(Nc2ccc3c(c2)C(=O)N(C2CCC(=O)NC2=O)C3=O)cc1` (configuration not stated): in data set [1], the inhibition came out at 17%.
Turning to `CC(C)c1ccc(Nc2cccc3c2C(=O)N(C2CCC(=O)NC2=O)C3=O)cc1` (configuration not stated), in data set [1], the inhibition turned out to be 19%. Also, in the data set on Jurkat, the Activity is recorded as 89%.
In the case of `O=C1CCC(N2C(=O)c3ccccc3C2=O)C(=O)N1` (racemic), the inhibition in data set [1] is 2%; in data set [2], 4%.
Take `CCCc1ccc(Nc2cccc3c2C(=O)N(C2CCC(=O)NC2=O)C3=O)cc1` (configuration not stated): the inhibition in data set [1] came out at 23%. Further, in the data set on Jurkat, the Activity came out at 89%.
On to `CC(C)c1ccc(Nc2ccc3c(c2)C(=O)N(C2CCC(=O)NC2=O)C3=O)cc1` (configuration not stated), for which the inhibition in data set [1] was 11%.
Take `CCOC(=O)c1ccc(Nc2cccc3c2C(=O)N(C2CCC(=O)NC2=O)C3=O)cc1` (configuration not stated): the inhibition in data set [1] was 10%. Also, in the data set on Jurkat, the Activity is 89%.
The matching figures for `CC(=O)c1ccc(Nc2cccc3c2C(=O)N(C2CCC(=O)NC2=O)C3=O)cc1` (configuration not stated): 2% and 89%.
For `Cc1ccccc1Nc1cccc2c1C(=O)N(C1CCC(=O)NC1=O)C2=O` (configuration not stated) the same measures were 7% and 89%.
As for `CCCCCc1ccc(Nc2ccc3c(c2)C(=O)N(C2CCC(=O)NC2=O)C3=O)cc1` (configuration not stated), the inhibition in data set [1] was 12%.
Regarding `CCCc1ccc(Nc2ccc3c(c2)C(=O)N(C2CCC(=O)NC2=O)C3=O)cc1` (configuration not stated), in data set [1], the inhibition came to 10%.
As for `CC(=O)c1ccc(Nc2ccc3c(c2)C(=O)N(C2CCC(=O)NC2=O)C3=O)cc1` (configuration not stated), the inhibition in data set [1] was -2%.
Take `Nc1cccc2c1CN(C1CCC(=O)NC1=O)C2=O` (configuration not stated): the inhibition turned out to be 4% in data set [1] and 6% in data set [2].
On to `Cc1ccc(Nc2ccc3c(c2)C(=O)N(C2CCC(=O)NC2=O)C3=O)cc1` (configuration not stated), for which the inhibition in data set [1] was 5%.
The same measure, in the same setting: with `CCOC(=O)c1ccc(Nc2ccc3c(c2)C(=O)N(C2CCC(=O)NC2=O)C3=O)cc1` (configuration not stated) the figure was 5%; with `O=C1CCC(N2C(=O)c3ccc(Nc4ccccn4)cc3C2=O)C(=O)N1` (configuration not stated), 9%.
For `CCc1ccc(Nc2cccc3c2C(=O)N(C2CCC(=O)NC2=O)C3=O)cc1` (configuration not stated), in data set [1], the inhibition was 17%. Also, the Activity with Jurkat is 89%.
For the molecule `O=C1CCC(N2C(=O)c3cccc(Nc4ccccc4)c3C2=O)C(=O)N1` (configuration not stated), the inhibition in data set [1] came to 4%; in data set [2] it was 16%. In addition, in the data set on Jurkat, the Activity is 89%.
For the molecule `O=C1CCC(N2C(=O)c3ccc(Nc4ccccc4)cc3C2=O)C(=O)N1` (configuration not stated), the inhibition in data set [1] turned out to be 6%; in data set [2], 17%. In data set [3], the Ratio stood at 2.
For `COc1ccc(Nc2ccc3c(c2)C(=O)N(C2CCC(=O)NC2=O)C3=O)cc1` (configuration not stated), the inhibition in data set [1] was found to be 29%.
For the molecule `COc1ccc(Nc2cccc3c2C(=O)N(C2CCC(=O)NC2=O)C3=O)cc1` (configuration not stated), in data set [1], the inhibition worked out at 13%. Further, the Activity with Jurkat turned out to be 89%.
As for `Cc1ccccc1Nc1ccc2c(c1)C(=O)N(C1CCC(=O)NC1=O)C2=O` (configuration not stated), the inhibition in data set [1] came out at 2%.
In the case of `CCCCCc1ccc(Nc2cccc3c2C(=O)N(C2CCC(=O)NC2=O)C3=O)cc1` (configuration not stated), the inhibition in data set [1] was 23%. The Activity in the data set on Jurkat is given as 89%.
For the molecule `CCc1ccc(Nc2ccc3c(c2)C(=O)N(C2CCC(=O)NC2=O)C3=O)cc1` (configuration not stated), the inhibition in data set [1] was determined as 5%.
Regarding `O=C1CCC(N2C(=O)c3cccc(Nc4ccc(O)cc4)c3C2=O)C(=O)N1` (configuration not stated), the inhibition in data set [1] stood at 4%. In addition, the Activity with Jurkat came to 89%.
For `CC(C)(C)c1ccc(Nc2cccc3c2C(=O)N(C2CCC(=O)NC2=O)C3=O)cc1` (configuration not stated) the same measures were 36% and 89%.
Take `CN(c1ccccc1)c1ccc2c(c1)C(=O)N(C1CCC(=O)NC1=O)C2=O` (configuration not stated): in data set [1], the inhibition was -2%.
